Data as given in US11780839B2, “Compounds for treating Huntington's disease” (PTC THERAPEUTICS, INC., priority 2018, dated 2023).

System: Endogenous Huntingtin Protein
Experiment: Endogenous Huntingtin Protein Assay (ELISA-based Meso Scale Discovery electrochemiluminescence)
Format: cell-based
Details: MSD electrochemiluminescence, Table 1
Procedure: Compounds of Formula (I) or Formula (II) were tested using the Meso Scale Discovery (MSD) Assay provided in International Application No. PCT/US2016/066042, filed on Dec. 11, 2016 and claiming priority to U.S. Provisional Application 62/265,652 filed on Dec. 10, 2015, the entire contents of which are incorporated herein by reference.
The Endogenous Huntingtin Protein assay used in Example 1 was developed using the ELISA-based MSD electrochemiluminescence assay platform.
Endogenous Huntingtin Protein Assay
Meso Scale Discovery (MSD) 96-well or 384-well plates were coated overnight at 4° C. with MW1 (expanded polyglutamine) or MAB2166 monoclonal antibody (for capture) at a concentration of 1 μg/mL in PBS (30 μL per well). Plates were then washed three times with 300 μL wash buffer (0.05% Tween-20 in PBS) and blocked (100 μL blocking buffer; 5% BSA in PBS) for 4-5 hours at room temperature with rotational shaking and then washed three times with wash buffer.
Samples (25 μL) were transferred to the antibody-coated MSD plate and incubated overnight at 4° C. After removal of the lysates, the plate was washed three times with wash buffer, and 25 μL of #5656S (Cell signaling; rabbit monoclonal) secondary antibody (diluted to 0.25 μg/mL in 0.05% Tween-20 in blocking buffer) was added to each well and incubated with shaking for 1 Hour at room temperature. Following incubation with the secondary antibody, the wells were rinsed with wash buffer after which 25 μL of goat anti-rabbit SULFO TAG secondary detection antibody (required aspect of the MSD system) (diluted to 0.25 μg/mL in 0.05% Tween-20 in blocking buffer) was added to each well and incubated with shaking for 1 hour at room temperature. After rinsing three times with wash buffer, 150 μL of read buffer T with surfactant (MSD) were added to each empty well, and the plate was imaged on a SI 6000 imager (MSD) according to manufacturers' instructions provided for 96- or 384-well plates.

| Compound | IC50 [µM] |
| --- | --- |
| CC1(C)C[C@H](Nc2ncc(-c3ccc(-c4c[nH]nn4)cc3O)nn2)[C@H](F)C(C)(C)N1 [Cpd 247, 2-(3-{[(3S,4S)-3-fluoro-2,2,6,6-tetramethylpiperidin-4-yl]amino}-1,2,4-triazin-6-yl)-5-(1H-1,2,3-triazol-4-yl)phenol] | ≤ 0.1 |
| CC1(C)CC(Oc2ncc(-c3ccc(-c4cn[nH]c4)cc3O)nn2)CC(C)(C)N1 [Cpd 11, 5-(1H-pyrazol-4-yl)-2-{3-[(2,2,6,6-tetramethylpiperidin-4-yl)oxy]-1,2,4-triazin-6-yl}phenol] | ≤ 0.1 |
| CN(c1ncc(-c2ccc(-n3cncn3)cc2O)nn1)C1CC(C)(C)NC(C)(C)C1 [Cpd 79, 2-{3-[methyl(2,2,6,6-tetramethylpiperidin-4-yl)amino]-1,2,4-triazin-6-yl}-5-(1H-1,2,4-triazol-1-yl)phenol] | ≤ 0.1 |
| Cc1cnc(-c2ccc(-c3cnc(N(C)C4CC(C)(C)NC(C)(C)C4)nn3)c(O)c2)o1 [Cpd 1, 5-(5-methyl-1,3-oxazol-2-yl)-2-{3-[methyl(2,2,6,6-tetramethylpiperidin-4-yl)amino]-1,2,4-triazin-6-yl}phenol] | > 0.5 |
| Oc1cc(-c2cn[nH]c2)ccc1-c1cnc(N2CC3(CCCNC3)C2)nn1 [Cpd 109, 2-[3-(2,6-diazaspiro[3.5]nonan-2-yl)-1,2,4-triazin-6-yl]-5-(1H-pyrazol-4-yl)phenol] | 0.1 to 0.5 |
| Oc1cc(-c2cn[nH]c2)ccc1-c1cnc(N2CCC(CNC3CCOCC3)C2)nn1 (stereo not shown) [Cpd 372, 2-[3-(3-{[(oxan-4-yl)amino]methyl}pyrrolidin-1-yl)-1,2,4-triazin-6-yl]-5-(1H-pyrazol-4-yl)phenol] | ≤ 0.1 |
| CNC1CCN(c2ncc(-c3ccc(-c4nnn(C)n4)cc3O)nn2)C1 (stereo not shown) [Cpd 320, 2-{3-[3-(methylamino)pyrrolidin-1-yl]-1,2,4-triazin-6-yl}-5-(2-methyl-2H-tetrazol-5-yl)phenol] | 0.1 to 0.5 |
| CC(C)NC1CCN(c2ncc(-c3ccc(-c4ccc5nccn5n4)cc3O)nn2)C1 (stereo not shown) [Cpd 294] | ≤ 0.1 |
| CN(c1ncc(-c2ccc(-c3ccc4nccn4n3)cc2O)nn1)C1CC(C)(C)NC(C)(C)C1 [Cpd 92, 5-(imidazo[1,2-b]pyridazin-6-yl)-2-{3-[methyl(2,2,6,6-tetramethylpiperidin-4-yl)amino]-1,2,4-triazin-6-yl}phenol] | ≤ 0.1 |
| CN1CCC[C@H]2CN(c3ncc(-c4ccc(-c5cn[nH]c5)cc4O)nn3)C[C@H]21 [Cpd 310, 2-{3-[(4aS,7aS)-1-methyloctahydro-6H-pyrrolo[3,4-b]pyridin-6-yl]-1,2,4-triazin-6-yl}-5-(1H-pyrazol-4-yl)phenol] | 0.1 to 0.5 |
| CN(c1ncc(-c2ccc(-c3ccc4[nH]ncc4c3)cc2O)nn1)C1CC(C)(C)NC(C)(C)C1 [Cpd 97, 5-(1H-indazol-5-yl)-2-{3-[methyl(2,2,6,6-tetramethylpiperidin-4-yl)amino]-1,2,4-triazin-6-yl}phenol] | ≤ 0.1 |
| Oc1cc(-c2cn[nH]c2)ccc1-c1cnc(N[C@H]2CCNC[C@H]2F)nn1 [Cpd 345, 2-(3-{[(3R,4S)-3-fluoropiperidin-4-yl]amino}-1,2,4-triazin-6-yl)-5-(1H-pyrazol-4-yl)phenol] | 0.1 to 0.5 |
| CN(c1ncc(-c2ccc(-c3cnccn3)cc2O)nn1)C1CC(C)(C)NC(C)(C)C1 [Cpd 83, 2-{3-[methyl(2,2,6,6-tetramethylpiperidin-4-yl)amino]-1,2,4-triazin-6-yl}-5-(pyrazin-2-yl)phenol] | ≤ 0.1 |
| CN(c1ncc(-c2ccc(-c3ccc(=O)[nH]c3)cc2O)nn1)C1CC(C)(C)NC(C)(C)C1 [Cpd 104, 5-(3-hydroxy-4-{3-[methyl(2,2,6,6-tetramethylpiperidin-4-yl)amino]-1,2,4-triazin-6-yl}phenyl)pyridin-2(1H)-one] | ≤ 0.1 |
| CN(c1cnc(-c2ccc(-c3ccn(C)n3)cc2O)nn1)C1CC(C)(C)NC(C)(C)C1 [Cpd 343, 5-(1-methyl-1H-pyrazol-3-yl)-2-{6-[methyl(2,2,6,6-tetramethylpiperidin-4-yl)amino]-1,2,4-triazin-3-yl}phenol] | ≤ 0.1 |
| CC(C)NC1CCN(c2ncc(-c3ccc(-c4cnn(C)n4)cc3O)nn2)C1 (stereo not shown) [Cpd 236, 5-(2-methyl-2H-1,2,3-triazol-4-yl)-2-(3-{3-[(propan-2-yl)amino]pyrrolidin-1-yl}-1,2,4-triazin-6-yl)phenol] | ≤ 0.1 |
| CC(C)NC1CCN(c2ncc(-c3ccc(-n4ccnc4)cc3O)nn2)C1 (stereo not shown) [Cpd 331] | 0.1 to 0.5 |
| CC(C)NC1CCN(c2ncc(-c3ccc(-n4nccn4)cc3O)nn2)C1 (stereo not shown) [Cpd 264] | 0.1 to 0.5 |

The next lines start with the values.

| IC50 [µM] | Compound |
| --- | --- |
| 0.1 to 0.5 | CC1CC(Oc2ncc(-c3ccc(-c4cn[nH]c4)cc3O)nn2)CC(C)N1 (stereo not shown) [Cpd 82, 2-{3-[(2,6-dimethylpiperidin-4-yl)oxy]-1,2,4-triazin-6-yl}-5-(1H-pyrazol-4-yl)phenol] |
| ≤ 0.1 | CN[C@H]1CCN(c2ncc(-c3ccc(-c4cn[nH]c4)cc3O)nn2)C1 [Cpd 114, 2-{3-[(3S)-3-(methylamino)pyrrolidin-l-yl]-1,2,4-triazin-6-yl}-5-(1H-pyrazol-4-yl)phenol] |
| ≤ 0.1 | CC1(C)C[C@H](Nc2ncc(-c3ccc(-n4cnc(F)c4)cc3O)nn2)[C@H](F)C(C)(C)N1 [Cpd 240, 5-(4-fluoro-1H-imidazol-1-yl)-2-(3-{[(3S,4S)-3-fluoro-2,2,6,6-tetramethylpiperidin-4-yl]amino}-1,2,4-triazin-6-yl)phenol] |
| ≤ 0.1 | NC1C2CN(c3ncc(-c4ccc(-c5cn[nH]c5)cc4O)nn3)CC12 (stereo not shown) [Cpd 100, 2-[3-(6-amino-3-azabicyclo[3.1.0]hexan-3-yl)-1,2,4-triazin-6-yl]-5-(1H-pyrazol-4-yl)phenol] |
| 1 to 3 | Oc1cc(-c2cn[nH]c2)ccc1-c1cnc(N2CCC(NC3COC3)C2)nn1 (stereo not shown) [Cpd 312, 2-(3-{3-[(oxetan-3-yl)amino]pyrrolidin-1-yl}-1,2,4-triazin-6-yl)-5-(1H-pyrazol-4-yl)phenol] |
| ≤ 0.1 | Cc1ncc(-c2ccc(-c3cnc(N4CC5(CCN(C)CC5)C4)nn3)c(O)c2)o1 [Cpd 299, 2-[3-(7-methyl-2,7-diazaspiro[3.5]nonan-2-yl)-1,2,4-triazin-6-yl]-5-(2-methyl-1,3-oxazol-5-yl)phenol] |
| ≤ 0.1 | COCC(C)(C)NC1CCN(c2ncc(-c3ccc(-c4cn[nH]c4)cc3O)nn2)C1 (stereo not shown) [Cpd 341, 2-(3-{3-[(1-methoxy-2-methylpropan-2-yl)amino]pyrrolidin-1-yl}-1,2,4-triazin-6-yl)-5-(1H-pyrazol-4-yl)phenol] |
| 0.1 to 0.5 | CC(C)NC1CCN(c2ncc(-c3ccc(-c4nnn(C)n4)cc3O)nn2)C1 (stereo not shown) [Cpd 259, 5-(2-methyl-2H-tetrazol-5-yl)-2-(3-{3-[(propan-2-yl)amino]pyrrolidin-1-yl}-1,2,4-triazin-6-yl)phenol] |
| 0.1 to 0.5 | CNC1CCN(c2ncc(-c3ccc(-c4cc(SC)ncn4)cc3O)nn2)C1 (stereo not drawn) [Cpd 364, 2-{3-[3-(methylamino)pyrrolidin-l-yl]-1,2,4-triazin-6-yl}-5-[6-(methylsulfanyl)pyrimidin-4-yl]phenol] |
| ≤ 0.1 | CN1CCC2(CC1)CN(c1ncc(-c3ccc(-c4c[nH]nn4)cc3O)nn1)C2 [Cpd 245, 2-[3-(7-methyl-2,7-diazaspiro[3.5]nonan-2-yl)-1,2,4-triazin-6-yl]-5-(1H-1,2,3-triazol-4-yl)phenol] |
| ≤ 0.1 | CC1(C)CC(Nc2cnc(-c3ccc(-n4nccn4)cc3O)nn2)CC(C)(C)N1 [Cpd 401, 2-{6-[(2,2,6,6-tetramethylpiperidin-4-yl)amino]-1,2,4-triazin-3-yl}-5-(2H-1,2,3-triazol-2-yl)phenol] |
| ≤ 0.1 | CC(C)NC1CCN(c2ncc(-c3ccc(-c4ccn(C)c(=O)c4)cc3O)nn2)C1 (stereo not shown) [Cpd 227, 4-[3-hydroxy-4-(3-{3-[(propan-2-yl)amino]pyrrolidin-1-yl}-1,2,4-triazin-6-yl)phenyl]-1-methylpyridin-2(1H)-one] |
| 0.1 to 0.5 | CN1CC[C@@H]2CN(c3ncc(-c4ccc(-c5cn[nH]c5)cc4O)nn3)C[C@@H]21 [Cpd 117, 2-{3-[(3aR,6aR)-1-methylhexahydropyrrolo[3,4-b]pyrrol-5(1H)-yl]-1,2,4-triazin-6-yl}-5-(1H-pyrazol-4-yl)phenol] |
| ≤ 0.1 | CC(C)NCC1CCN(c2ncc(-c3ccc(-c4cn[nH]c4)cc3O)nn2)C1 (stereo not drawn) [Cpd 361, 2-[3-(3-{[(propan-2-yl)amino]methyl}pyrrolidin-l-yl)-1,2,4-triazin-6-yl]-5-(1H-pyrazol-4-yl)phenol] |
| ≤ 0.1 | CC(C)NC1CCN(c2ncc(-c3ccc(-c4cn[nH]c4F)cc3O)nn2)C1 (stereo not shown) [Cpd 235, 5-(5-fluoro-1H-pyrazol-4-yl)-2-(3-{3-[(propan-2-yl)amino]pyrrolidin-1-yl}-1,2,4-triazin-6-yl)phenol] |
| > 0.5 | CC1(C)CN(c2ncc(-c3ccc(-c4cn[nH]c4)cc3O)nn2)CC(C)(C)N1 [Cpd 282, 5-(1H-pyrazol-4-yl)-2-[3-(3,3,5,5-tetramethylpiperazin-1-yl)-1,2,4-triazin-6-yl]phenol] |
